PMC12797170, “Potent Competitive Inhibitors of Ecto-5′-nucleotidase (CD73) based on 6‑(Het)aryl-7-deazapurine Ribonucleoside 5′‑O‑Bisphosphonates” (ACS Pharmacology & Translational Science, 2025)
Values after ≈ are worked out from the molar mass of the structure shown.

Legend:
[1] = Plasma protein binding, mouse plasma; format: in vitro ADME; settings: mouse, plasma, mouse plasma protein binding; read-out: PPB (m) (converted)
Protocol: (§1) Plasma protein binding of the investigated compounds was determined using equilibrium dialysis in single-use Rapid Equilibrium Dialysis devices with an 8 kDa molecular weight cutoff (Thermo Fisher Scientific), following the manufacturer’s protocol. In brief, 50 μL of undiluted human plasma (Biowest), spiked with the test compound at a final concentration of 100 μM, was added to the sample chamber, while 300 μL of phosphate-buffered saline (PBS) was placed in the buffer chamber. Devices were incubated for 4 h at 37 °C with gentle shaking.
(§2) After dialysis, 7.5 μL aliquots from both the plasma and buffer chambers were transferred directly into wells of a 384-well plate. To equalize the matrices for downstream processing, 7.5 μL of PBS was added to each plasma aliquot, and 7.5 μL of plasma was added to each buffer aliquot. Proteins were precipitated by adding four volumes of ice-cold methanol to each well, followed by thorough mixing and incubation at – 20 °C for 30 min. Plates were then stored overnight at 8 °C. Prior to analysis, the plate was centrifuged at 2,000 × g for 20 min at 8 °C. […] The fraction of unbound compound was calculated using the following equations: %Free=c(bufferchamber)/c(plasmachamber)*100% %Bound=100%−%Free

[2] = Plasma protein binding, equilibrium dialysis, human plasma; format: in vitro ADME; settings: undiluted plasma, human plasma protein binding, read-out: PPB (hu) (converted)
Protocol: as §1, §2

[3] = Microsomal stability assay, mouse liver microsomes; format: in vitro ADME; settings: for Mics (m) comp remaining 60 min: 10 μM; for microsomal CLint at 10 µM: pooled liver microsomes, pH 7.4, read-out: Mics (m) CLint
[4] = Kinetic solubility in PBS; format: physicochemical; settings: phosphate-buffered saline, pH 7.4, aqueous buffer, kinetic from dmso stock
Protocol: Test compounds were prepared as 10 mM stock solutions in DMSO and diluted in phosphate-buffered saline (PBS, pH 7.4) to a 100 μM solution, which was then aliquoted in duplicate. The duplicate samples were incubated in Multiscreen PCF Filter Plates (Merck Millipore) with sealed bottom at room temperature on a shaker for 2 h to allow equilibration. Following incubation, the samples were centrifuged into nonsterile, flat-bottom 96-well plates at 2,200 RCF for 12 min. Supernatants were then diluted 1:99 in a solution of 50% acetonitrile containing 0.1% DMSO. The diluted samples were transferred to 384-well Echo plates, which contained prespotted calibration standards prepared by Echo transfer of 10 mM and 1 mM DMSO stock solutions, resulting in calibration points ranging from 0.05 to 4 μM. Samples and standards were subsequently analyzed by Echo-MS.

[5] = in vitro; settings: mouse, plasma
[6] = test system: HeLa S3; experiment: In vitro cytotoxic activity; format: cell-based; settings: Homo sapiens
Protocol: (§3) All the compounds were also tested for their in vitro cytotoxic activity on a small panel of four cancer cell lines (CCRF-CEM, HepG2, HeLa S3, HL-60) and nonmalignant human dermal fibroblasts (NHDF).

[7] = test system: CCRF-CEM; experiment: In vitro cytotoxic activity; format: cell-based; settings: Homo sapiens
Protocol: as §3

[8] = test system: HepG2; experiment: In vitro cytotoxic activity; format: cell-based; settings: Homo sapiens
Protocol: as §3

[9] = test system: HL-60; experiment: In vitro cytotoxic activity; format: cell-based; settings: Homo sapiens
Protocol: as §3

[10] = test system: nonmalignant human dermal fibroblasts (NHDF); experiment: In vitro cytotoxic activity; format: cell-based
Protocol: as §3

[11] = Microsomal stability assay, human liver microsomes; format: in vitro ADME; settings: for Mics (hu) comp remaining 60 min: 10 μM; for microsomal CLint at 10 µM: pooled liver microsomes, pH 7.4, read-out: Mics (hu) CLint
[12] = biological target: T1, recombinant human CD73 (hCD73) (Homo sapiens, UniProt P21589); experiment: CD73 activity assay on recombinant human CD73; format: biochemical; settings: ΔGexp = RT ln Ki
T1 sequence (P21589 27-574): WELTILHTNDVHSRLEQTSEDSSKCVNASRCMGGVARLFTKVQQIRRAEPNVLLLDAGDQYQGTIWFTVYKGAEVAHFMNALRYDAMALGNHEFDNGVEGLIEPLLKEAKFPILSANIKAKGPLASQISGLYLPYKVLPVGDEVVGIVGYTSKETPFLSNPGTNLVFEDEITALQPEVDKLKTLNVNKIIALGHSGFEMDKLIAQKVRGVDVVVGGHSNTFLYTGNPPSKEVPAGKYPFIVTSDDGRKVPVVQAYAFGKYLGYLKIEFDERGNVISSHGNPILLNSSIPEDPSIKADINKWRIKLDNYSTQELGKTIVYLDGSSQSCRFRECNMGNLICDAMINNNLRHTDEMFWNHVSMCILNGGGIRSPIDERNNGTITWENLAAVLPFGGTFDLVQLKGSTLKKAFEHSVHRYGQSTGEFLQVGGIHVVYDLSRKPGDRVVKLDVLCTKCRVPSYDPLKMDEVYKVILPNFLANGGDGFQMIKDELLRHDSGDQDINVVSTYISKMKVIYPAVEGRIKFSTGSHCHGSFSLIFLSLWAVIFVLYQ

[13] = in vitro; settings: human, plasma

SMILES	fraction unbound at 4 h, 100 µM [1]	fraction unbound at 4 h, 100 µM [2]	Mics (m) comp remaining 60 min [3]	microsomal CLint at 10 µM [3]	solubility at 2 h [4]	half-life at 10 µM [5]	Mics (hu) comp remaining 60 min [11]	microsomal CLint at 10 µM [11]	dG_exp, experimental binding free energy [12]	half-life at 10 µM [13]	IC50 [6]	IC50 [7]	IC50 [8]	IC50 [9]	IC50 [10]
O=P(O)(O)CP(=O)(O)OC[C@H]1O[C@@H](n2ccc3c(-c4cnc5ccccc5c4)ncnc32)[C@H](O)[C@@H]1O [4A.20]	0.536	0.054	110%	< 1 µL/min/mg	> 100 µM	> 2 h	88%	2 µL/min/mg	–12.8 kcal/mol	> 2 h	> 10 µM	> 10 µM	> 10 µM	> 10 µM	> 10 µM
Nc1nc(-c2cc3ccccc3o2)c2ccn([C@@H]3O[C@H](COP(=O)(O)CP(=O)(O)O)[C@@H](O)[C@H]3O)c2n1 [11C.8]	0.391	0.058	97%	2 µL/min/mg	87 µM (≈ 47 µg/mL)	> 2 h	100%	< 1 µL/min/mg	–13.9 kcal/mol	> 2 h	> 10 µM	> 10 µM	> 10 µM	> 10 µM	> 10 µM
Nc1nc(-c2ccc3ccccc3c2)c2ccn([C@@H]3O[C@H](COP(=O)(O)CP(=O)(O)O)[C@@H](O)[C@H]3O)c2n1 [11C.7]	0.305	0.037	97%	2 µL/min/mg	> 100 µM	> 2 h	100%	< 1 µL/min/mg	–13.8 kcal/mol	> 2 h	> 10 µM	> 10 µM	> 10 µM	> 10 µM	> 10 µM
O=P(O)(O)CP(=O)(O)OC[C@H]1O[C@@H](n2ccc3c(-c4ccoc4)ncnc32)[C@H](O)[C@@H]1O [4A.2]	0.872	0.162			97 µM (≈ 46.1 µg/mL)	> 2 h			–12.5 kcal/mol	> 2 h	> 10 µM	> 10 µM	> 10 µM	2.8 µM	> 10 µM
O=P(O)(O)CP(=O)(O)OC[C@H]1O[C@@H](n2ccc3c(-c4cccs4)ncnc32)[C@H](O)[C@@H]1O [4A.3]	0.535	0.081			76 µM (≈ 37.3 µg/mL)	> 2 h			–13.1 kcal/mol	> 2 h	> 10 µM	9.9 µM	> 10 µM	4.2 µM	> 10 µM
N#Cc1ccc(-c2nc(Cl)nc3c2ccn3[C@@H]2O[C@H](COP(=O)(O)CP(=O)(O)O)[C@@H](O)[C@H]2O)c2ccccc12 [7B.34]	0.339	≤ 0.01		< 2 µL/min/mg	> 100 µM	> 2 h	97%	< 2 µL/min/mg		> 2 h	> 10 µM	> 10 µM	> 10 µM	> 10 µM	> 10 µM

The next lines start with results.

fraction unbound at 4 h, 100 µM [1]	fraction unbound at 4 h, 100 µM [2]	Mics (m) comp remaining 60 min [3]	microsomal CLint at 10 µM [3]	solubility at 2 h [4]	half-life at 10 µM [5]	Mics (hu) comp remaining 60 min [11]	microsomal CLint at 10 µM [11]	dG_exp, experimental binding free energy [12]	half-life at 10 µM [13]	SMILES	IC50 [6]	IC50 [7]	IC50 [8]	IC50 [9]	IC50 [10]
0.788	0.095			80 µM (≈ 38.8 µg/mL)	> 2 h			–12.6 kcal/mol	> 2 h	O=P(O)(O)CP(=O)(O)OC[C@H]1O[C@@H](n2ccc3c(-c4ccccc4)ncnc32)[C@H](O)[C@@H]1O [4A.5]	> 10 µM	> 10 µM	> 10 µM	3.7 µM	> 10 µM
0.628	0.093	108%	< 1 µL/min/mg	87 µM (≈ 46.7 µg/mL)	> 2 h	121%	< 1 µL/min/mg		> 2 h	O=P(O)(O)CP(=O)(O)OC[C@H]1O[C@@H](n2cnc3c(-c4cccc5ccccc45)ncnc32)[C@H](O)[C@@H]1O [31A.6, [(5-{[6-(Naphth-1-yl)-9H-purin-9-yl]-β-D-ribofuranosyl}oxy)phosphonomethyl]phosphonic Acid]	> 10 µM	> 10 µM	> 10 µM	> 10 µM	> 10 µM
0.699	0.053			25 µM (≈ 11.9 µg/mL)	> 2 h			–12.9 kcal/mol	> 2 h	O=P(O)(O)CP(=O)(O)OC[C@H]1O[C@@H](n2ccc3c(-c4ccco4)ncnc32)[C@H](O)[C@@H]1O [4A.1, [(5-{[4-(Furan-2-yl)-7H-pyrrolo[2,3-d]pyrimidin-7-yl]-β-D-ribofuranosyl}oxy)phosphonomethyl]phosphonic Acid]	> 10 µM	> 10 µM	> 10 µM	3.7 µM	> 10 µM
